According to patent publication US20260132172A1, “IN VITRO BIOSYNTHESIS OF DIVERSE PYRIDINE-BASED MACROCYCLIC PEPTIDES” (The Brd. of Trustees of the Univ. of Illinois, priority 2022, published 2026):
Where a SMILES comes first, the peptide text is derived from it. The star is where a group is joined. 5FAM = O=C1OC2(c3ccc(O)cc3Oc3cc(O)ccc32)c2ccc(C(=O)*)cc21

What was measured:
MBP-MroD = assay: Fluorescence polarization to measure KD with MroD; assay type: binding, Micromonospora rosaria
Experimental: (§1) All proteins and peptides were prepared in the 0.5× storage buffer before concentration/FP measurement. Experiments were done in triplicates. Stock fluorescein-labeled peptide was measured concentration using A490 (ε: 70,000 M^−1 cm^−1). Initial sample was prepared: 5 nM labelled Δ12MroA1 (for MroD; for MroB, only 2 nM labelled Δ12MroA1 was used), 10 μM MBP-MroB (A280 ε: 178,885 M^−1 cm^−1) or 10 μM MBP-MroD (A280 ε:115,740 M^−1 cm^−1). In a black 96-well plate (Corning 3686), 50 μL of initial sample was added to the first well, followed by 11 3-fold dilutions into subsequent wells containing 5 nM labeled Δ12MroA1. The plate was covered from light and incubated at room temperature for 1 h, and then fluorescence polarization was measured (Biotek Synergy H4 hybrid reader) using the following filter (Excitation: Emission—485 nm/20 nm: 518 nm/20 nm). The obtained data was converted to anisotropy value and plotted against protein concentration. Using the OriginPro software, the data were fitted to receptor depletion equation:^11
(§2) Where: y=anisotropy value, A1=minimum anisotropy, A2=maximum anisotropy, Lt=probe concentration, and x=total enzyme concentration.

MBP-MroB = assay: Fluorescence polarization to measure KD with MroB; assay type: binding, Micromonospora rosaria
Experimental: as §1, §2

MroD = MroD [4+2] macrocyclization of didehydrated MroA2 variants, MALDI-TOF-MS; assay type: biochemical, Micromonospora rosaria; settings: MroA2 multi-site variants; qualitatively estimated from leader peptide vs remaining didehydrated intermediate
Experimental: After incubation, the enzyme reaction (18 μL) was split into two equal parts. One part was treated with MBP-MroD such that the final concentration of MBP-MroD is 3 μM, and the other part was added the same volume but with buffer lacking MBP-MroD (50 mM HEPES, 300 mM NaCl, 2.5% glycerol, 0.5 mM TCEP). The reaction further proceeded for 1.5 h at room temperature. All reaction mixture was then desalted with solid-phase extraction using Ziptip with 0.6 μL C18 resin (EMD Millipore) and crystallized on an MTP384 steel target plate using either saturated sinapic acid or 50 mg/mL Super DHB [dissolved in 60% acetonitrile and 0.1% trifluoroacetic acid (TFA)] as the matrix. The crystallized spots were then analyzed using MALDI-TOF-MS (Bruker Ultraflex). The external standard for MALDI-TOF-MS analysis is ProteoMass Peptide and Protein MALDI-MS Calibration Kit (Sigma).

MroB/C = MroB/C dehydration (Dha formation) of MroA precursor peptide variants, MALDI-TOF-MS / LC-MS/MS; assay type: biochemical, Micromonospora rosaria; settings: MroA2 multi-site variants, in vitro translated, MALDI-TOF-MS
Method in brief: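 MroA variants made by in vitro translation (37 °C, 1 h) were treated for 1 h at room temperature with TEV-cleaved MroB/MroC (2 µM each), GluRS, tRNA^Glu, 6 mM ATP and 5 mM IAA in 50 mM HEPES pH 7.5. Purified substrates were used at 10 µM without IAA. Dehydration was read by positive-mode LC-ESI-MS/MS with CID at 25 eV.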

| Compound | Kd (MBP-MroD) [nM] | Kd (MBP-MroB) [nM] | Relative MroD conversion (MroD) | Dha formation (MroB/C) [Dha] |
| --- | --- | --- | --- | --- |
| CC[C@H](C)[C@H](NC(=O)[C@@H](NC(=O)[C@H](Cc1c[nH]c2ccccc12)NC(=O)[C@H](CO)NC(=O)CNC(=O)[C@H](CC(C)C)NC(=O)[C@H](Cc1c[nH]c2ccccc12)NC(=O)CNC(=O)[C@H](CO)NC(=O)[C@H](C)NC(=O)CNC(=O)[C@@H](NC(=O)[C@H](CCC(=O)O)NC(=O)[C@@H](NC(=O)[C@H](CC(N)=O)NC(=O)CNC(=O)[C@H](CC(C)C)NC(=O)CNC(=O)CNC(=O)[C@@H](NC(=O)[C@H](CO)NC(=O)[C@H](CC(C)C)NC(=O)[C@H](C)NC(=O)[C@H](C)NC(=O)[C@H](CC(C)C)NC(=O)[C@H](CCC(=O)O)NC(=O)[C@H](CCC(=O)O)NC(=O)[C@H](CC(=O)O)NC(=O)[C@@H](NC(=O)[C@H](C)NC(=O)[C@H](CC(C)C)NC(=O)[C@H](CC(=O)O)NC(=O)[C@H](CC(C)C)NC(=O)[C@H](CC(=O)O)NC(=O)[C@@H](NC(=O)[C@@H](NC(=O)[C@H](CC(=O)O)NC(=O)[C@H](CC(C)C)NC(=O)[C@H](CC(=O)O)NC(=O)[C@H](CO)NC(=O)c1ccc2c(c1)C(=O)OC21c2ccc(O)cc2Oc2cc(O)ccc21)[C@@H](C)CC)C(C)C)C(C)C)C(C)C)[C@@H](C)O)C(C)C)C(C)C)C(=O)O [fluorescein-Δ12MroA1] (5FAM-SDLDIVDLDLAVDEELAALSVGGLGNTEVGASGWLGSWVI-OH) | ~12 | ~60 | – | – |
| SGIAKAGQSWLI [Number 28] | – | – | 1 | 2 |
